What was measured:
ADSCs [1] = assay: Vacuolization assay; assay type: cell-based, human; settings: 5 μM, 4 h
Description: After 4 h, pictures were acquired using a phase contrast microscope (DMi1, Leica, Wetzlar, Germany).

LC3B = assay: Autophagy induction (LC3B Western blot, LAMP1/LC3B colocalization); assay type: cell-based, human; settings: 16 h treatment
Description: (§1) After treatments, whole-cell lysates were prepared using RIPA lysis buffer supplemented with protease inhibitors (AEBSF, aprotinin, bestatin, E-64, EDTA, leupeptin, Sigma-Aldrich, Saint Louis, MO, USA) and orthovanadate (Sigma-Aldrich, Saint Louis, MO, USA). The proteins in the lysates were collected and quantified using the Pierce BCA protein assay kit (Thermo Fisher Scientific, Waltham, MA, USA). Subsequently, the proteins were denatured by heating at 95 °C for 5 min in the presence of 2% Sodium Dodecyl Sulfate (SDS, Sigma-Aldrich, Saint Louis, MO, USA), 150 mM dithiothreitol (DTT, Sigma-Aldrich, Saint Louis, MO, USA), and 0.01% bromophenol blue (Sigma-Aldrich, Saint Louis, MO, USA). The samples were then analyzed using SDS-PAGE (SDS-Polyacrylamide Gel Electrophoresis) and Western blotting (WB).
(§2) For INSRβ endocytosis experiments, the cells were stimulated with 50 ng/mL insulin for 15 min. For transferrin endocytosis experiments, the cells were incubated with 25 μg/mL Transferrin Texas Red for 5 min. After treatment, the cells were washed with PBS and fixed with 4% PFA for 10 min at room temperature, followed by an additional PBS wash. The cells were then permeabilized by incubating them with cold HEPES-Triton X-100 buffer for 5 min at 4 °C. After permeabilization, the cells were incubated with primary antibodies for 30 min, followed by incubation with Alexa Fluor 488- or 546-conjugated secondary antibodies (Invitrogen, Waltham, MA, USA) and phalloidin, labeled with either Alexa Fluor 546 or 633 (Invitrogen Waltham, MA, USA) for 30 min. After incubation, coverslips were mounted on glass slides using a mounting medium. Images were acquired using a confocal microscope (Leica TCS SP8, Wetzlar, Germany) and analyzed using ImageJ (v 1.52a) software in order to quantify and analyze the fluorescence signals.

ADSCs [2] = assay: Adipogenic differentiation, lipid droplet staining (HCS LipidTox); assay type: cell-based, human; settings: 5 µM; after three weeks of differentiation
Description: ADSCs were plated at a density of 70,000 cells/well in a 12-well plate using DMEM with 10% FBS. When the cells reached about 90% confluence, the culture medium was removed and substituted with WAT-differentiating medium containing DMEM 10% FBS, insulin (1 μM), dexamethasone (DEXA, 1 μM), IBMX (0.5 mM), and rosiglitazone ([…]). After 3 days of exposure to the differentiating medium, the cells were cultured in a maintenance medium containing only insulin (1 μM) and rosiglitazone (1 μM) for 14 days. The medium was changed every 3 days. The differentiation results were evaluated by staining the cells with HCS LipidTOX™ for neutral lipids (Thermo Fisher Scientific, Waltham, MA, USA) after 21 days. The cells were fixed using 4% paraformaldehyde (PFA, Sigma-Aldrich, SaintLouis, MO, USA) for 15 min at room temperature; then, each well was stained using HCS LipidTox and Hoechst 33342 and incubated at room temperature for 30 min. After this incubation, the cells were washed with water. Images were acquired using fluorescence microscopy (FLoid Cell Imaging Station, Life Technology, Carlsbad, CA, USA) or light microscopy (DMi1, Leica, Wetzlar, Germany) and analyzed using ImageJ software (v 1.52a).

ADSCs [3] = settings: 7 days; 1 to 50 μM
3T3L1 cells = assay: PA accumulation in cells transfected with DOCK2-Pii; assay type: cell-based, mouse; settings: 5 μM, 16 h; compared to untreated controls
Description: Transfection was carried out using Lipofectamine 3000 (Thermo Fisher Scientific, Waltham, MA, USA), following the manufacturer’s instructions. The cells were incubated with the plasmid for 24 h to ensure successful transfection and plasmid expression and were used for experiments 48 h post-transfection.

PKCζ = assay: PKC activation (Western blot, P-PKCζ T560 immunofluorescence); assay type: cell-based, human; settings: 5 μM, 16 h
Description: as §1, §2

Cc1cc2c(s1)Nc1ccccc1N=C2N1CCN(C)CC1 [olanzapine]
vacuolization induction (ADSCs [1]): absent
colocalization of LAMP1 with LC3B (LC3B): not observed
conversion of LC3B-I to LC3B-II (LC3B): not after olanzapine
quantity and average size of lipid droplets (ADSCs [2]): notably decreased
reduction in lipid accumulation (ADSCs [2]): approximately 30%
effects on cell viability (ADSCs [3]): negligible effects
PA accumulation (3T3L1 cells): significant accumulation
canonical PKCs (cPKCs) and atypical PKCζ activation state (PKCζ; Western blot): activation
increase in nuclear P-PKCζ T560 (PKCζ; immunofluorescence): 2 fold
